Laboratory results as given in US20180244645A1, “2-AMINO-3-FLUORO-3-(FLUOROMETHYL)-6-METHYL-6-PHENYL-3,4,5,6-TETRAHYDROPYRIDINES AS BACE1 INHIBITORS” (H. Lundbeck A/S, priority 2015, published 2018).

Tested on: Aβ40
Test: Assessment of Aβ levels in rat brain and plasma following BACE1 inhibition (Aβ40 ELISA)
Assay type: in vivo
Details: 3 hours post dose, vs vehicle
Description: Assessment of Aβ Levels in Rat Brain and Plasma Following BACE1 Inhibition. Animals.
All rat care and experimental procedures were approved by Lundbeck Veterinary Staff, according to Danish legislature. The rats were maintained in a barrier facility with a 12/12-h light/dark cycle and ad libitum food and water access.
Young adult Male Sprague Dawley rats of approximately 250 g weight were purchased from Charles River and received 0-30 mg/kg of vehicle (10% HP betaCD+1M MeSO4, pH 2.5) or test compounds (dissolved in vehicle) only by oral gavage (p.o). The compounds are dosed at a volume of 5 ml/kg. Cohorts of 5-10 animals were established for each treatment condition.
The animals undergoing treatment were closely monitored by veterinary staff for any signs of toxicity. Monitoring parameters included body weight, physical appearance, changes in coat appearance, occurrence of unprovoked behavior, and blunted or exaggerated responses to external stimuli.
At T=180 minutes after initial dosing the animals were stunned and decapitated with a guillotine. Trunk-blood was sampled in EDTA coated tubes after decapitation of the animal. The blood was centrifuged at 2200G at 4° C. for 15 minutes and the plasma was collected and frozen at −80° C. The blood was aliquoted for Aβ ELISA and pharmacokinetic analysis. Immediately following sacrifice, the brain was extracted and split into 2 halves. The right hemibrains were snap frozen on dry ice and stored at −80° C. The left half was dissected; with the front forebrain taken for Aβ ELISA and the remainder used for DMPK analysis. These samples were also snap frozen on dry ice and stored at −80° C. until use for analysis.
The cortex samples were thawed slightly on wet ice before they were homogenized with a small volume dispersing instrument (T10 basic ULTRA-TURRAX®) which was set at speed 5 for approximately 5-7 sec. The tissue was processed in a 10 times volume of the weight, for example 100 mg of tissue was homogenized in 1000 μL of Homogenization buffer. Homogenization buffer: 50 ml Milli Q water+50 nM NaCl+0.2% Diethylamin (DEA)+1 tablet of Complete Protease inhibitor cocktail+1 nM 4-(2-aminoethyl) benzenesulfonyl fluoride hydrochloride irreversible serine protease inhibitor (AEBSF).
After homogenization 450 μL aliquots of the samples were collected into a 1.5 ml Eppendorf tube and placed on wet ice, 0.5% NP-40 (50 ul) was added to all samples and then they were incubated on ice for 30 min. After which all samples were sonicated using an Ultrasonic homogenizer with 20 kHz homogeneous sound (SONOPLUS HD2070, Bandelin Electronic) 10 pulse set at 12-13% power to extract all the Aβ species. The samples were then centrifuged (Ole Dich 157 MPRF Micro centrifuge) at 20000G for 20 minutes at 4° C. After centrifugation […] of the supernatant was pipetted into 6004 microtubes tubes and neutralized with 154 of 1M Tris-HCL buffer.
WAKO 294-62501 Human/Rat Abeta amyloid (40) kit was used for all ELISA analyses. 30 μL plasma samples or 30 μL of the cortex supernatants generated as described above were placed in 600 μL microtubes tubes on wet ice. To this 30 μL of 8M urea (AppliChem A1049, 9025) was added to generate a 2-fold dilution. Both plasma and cortex supernatants were incubated on ice for 30 min. Standard rows were prepared from the standard peptide stock provided in the kit and standard diluent containing 1.6M Urea (200 μL 8M urea+800 μL of standard diluent) and 0.8M urea (400 μL 8M urea+3600 μL Standard diluent). A serial 2-fold dilution of […] from 100 pmol/ml to 0 pmol/L was prepared for the assay.
After incubation with urea, all samples were further diluted by addition of 5 times standard diluent from the Kit. This was done by adding 240 μL Standard Diluent to 60 μL sample/urea mixture, which was then mixed well. 100 μL of each diluted sample was pipetted into designated wells of the ELISA plate in duplicates. The plate was then covered and incubated overnight at 4° C. […]

Row | SMILES | Aβ40 reduction, Brain Rat (10 mg/kg p.o.) [%] | Aβ40 reduction, Brain Rat (30 mg/kg p.o.) [%] | Aβ40 reduction, Plasma Rat (10 mg/kg p.o.) [%] | Aβ40 reduction, Plasma Rat (30 mg/kg p.o.) [%]
1 | COc1cnc(C(=O)Nc2ccc(F)c([C@]3(C)CC[C@@](F)(CF)C(N)=N3)c2)cn1 [Compound 5, N-(3-((2S,5S)-6-Amino-5-fluoro-5-(fluoromethyl)-2-methyl-2,3,4,5-tetrahydropyridin-2-yl)-4-fluorophenyl)-5-methoxypyrazine-2-carboxamide] | 56 | 65 | 44 | 46
2 | C[C@@]1(c2cc(NC(=O)c3cnc(C(F)F)cn3)ccc2F)CC[C@@](F)(CF)C(N)=N1 [Compound 11, N-(3-((2S,5S)-6-Amino-5-fluoro-5-(fluoromethyl)-2-methyl-2,3,4,5-tetrahydropyridin-2-yl)-4-fluorophenyl)-5-(difluoromethyl)pyrazine-2-carboxamide] | 21 | 41 | 39 | 60
3 | C[C@@]1(c2cc(NC(=O)c3ccc(F)cn3)ccc2F)CC[C@@](F)(CF)C(N)=N1 [Compound 13, N-(3-((2S,5S)-6-Amino-5-fluoro-5-(fluoromethyl)-2-methyl-2,3,4,5-tetrahydropyridin-2-yl)-4-fluorophenyl)-5-fluoropicolinamide] | 43 | 59 | 38 | 38
